Assays:
Format in all cases: cell-based, mouse
[1] = system: MEFs; experiment: CiPSC induction by small-molecule combinations, primary CiPSC colonies counted; conditions: for replacement of DZNep in CiPSC generation: in combination with VC6TF
Protocol: The initial cells (MEFs, MNFs, MAFs or ADSCs) were seeded at a density of 50,000 cells per well of a 6-well plate or 300,000 cells per 100 mm dish. On the next day (day 0), the original medium was replaced with chemical reprogramming medium containing the small-molecule combinations. The small-molecule combinations-containing medium was changed every 4 days. On day 12, these cells were washed in PBS and digested with 0.25% Trypsin-EDTA (Invitrogen) at 37° C. for 3-5 min. After neutralization, the cell clumps were dissociated into single cells by thorough pipetting. The cells were harvested (300,000-1,000,000 cells per well of a 6-well plate) and replated at a density of 300,000-500,000 cells per well of a 6-well plate in the chemical reprogramming medium containing the small-molecule combinations. DZNep was added to the cell cultures on day 16 or day 20. On day 28-36, the small-molecule combinations including DZNep were removed. Meanwhile, the chemical reprogramming medium was replaced with 2i-medium. After another 8-12 days, 2i-competent, ESC-like and GFP-positive colonies were counted as primary CiPSC colonies. For CiPSC induction from wild-type cells without OG reporter, 2i-competent and ESC-like colonies were counted as primary CiPSC colonies. These CiPSC colonies were picked up for expansion and characterization. Alternatively, CiPSCs could be induced without replating on day 12.

[2] = system: MEFs from OG mice; experiment: Screen for chemical substitutes of Oct4 in OG-MEFs infected with Sox2, Klf4 and c-Myc; conditions: OG-MEFs with viral expression of Sox2, Klf4 and c-Myc
Protocol: To identify chemical substitutes of Oct4, MEFs from OG mice were plated at a density of 20,000 cells per well of a 12-well plate and infected with lentiviruses encoding Sox2, Klf4 and c-Myc. After infection, the medium was replaced with LIF-free ESC culture medium. Individual chemicals from small-molecule libraries were added to each well. The medium and chemicals were changed every 4 days. Chemical treatments were continued for 14-20 days or until GFP-positive colonies appeared. Primary hits were selected for further confirmation and optimization.
Small molecules that enable reprogramming in the absence of Oct4 were searched using Oct4 promoter-driven green fluorescent protein (GFP) expression (OG) mouse embryonic fibroblasts (MEFs), with viral expression of Sox2, Klf4, and c-Myc.

[3] = system: MEFs from OG mice; experiment: Screen for small molecules that facilitate late reprogramming (DOX-inducible Oct4 plus VC6T)
Protocol: To identify small molecules that facilitate late reprogramming, a doxycycline (DOX)-inducible Oct4 expression screening system was used (Li, et al., Cell Res. 21:196-204 (2011)).
MEFs from OG mice were plated as described above and infected with Fu-tet-hOct4 and FUdeltaGW-rtTA lentiviruses. The induction protocol was carried out as described above.
After infection, the culture medium was replaced with LIF-free ESC culture medium containing VC6T (VPA, CHIR99021, 616452, Tranylcypromine) plus DOX (1 μg/ml). Alternatively, MEFs harboring DOX-inducible Oct4 from Tet-On POU5F1 mouse strain B6; 129-Gt(ROSA)26Sor^tm1(rTA*M2)Jae COl1a1^tm2(tetO-Pou5f1)Jae/J were used in this screen (Li, et al., Cell Res., 21:196-204 (2011)). These two DOX-inducible systems were only used in this screen, but not in complete chemical reprogramming. Individual chemicals from small-molecule libraries were added to each well. Small molecules were added at different culture time points. 5-aza-C (5-Azacytidine) and DZNep were added from day 8. The medium and chemicals were changed every 4 days; DOX was added only for the first 4-8 days. Chemical treatments were continued for 16-24 days or until GFP-positive colonies appeared. Primary hits were selected for further confirmation and optimization. CiPSC colonies were counted on day 44. […]

[4] = system: cAMP level in MEF; experiment: Intracellular cAMP quantification (Direct cAMP ELISA); conditions: FSK 10 μM, versus DMSO control
Protocol: (§1) cAMP was quantified using the Direct cAMP ELISA Kit (Enzo) according to the manufacturer's protocol. For SAM and SAH quantification, cultured cells (1,000,000 cells) were trypsinized and homogenized by ultrasonication in 200 μl PBS. Then 40 μl of 400 mg/ml TCA was added. Cell extracts were incubated on ice for 30 min. After centrifugation at 4° C. (13,000 rpm, 15 min), the supernatants were filtered through a 0.22 μm filter and analyzed by high-performance liquid chromatography (HPLC, Shimadzu) with HILIC columns (Waters).
The effect of inhibiting adenylate cyclase on the number of colonies generated by VC6TFZ was tested. […] The effect of replacing FSK with the cAMP analog (DBcAMP), alone or in combination with phosphodiesterase inhibitors, IBMX, or the phosphodiesterase inhibitor, rolipram and IBMX, on cell reprogramming was also tested. Both DBcAMP and IBMX were used at 50 μM in the combination treatment.

[5] = system: pluripotency-related genes; experiment: Gene expression during chemical reprogramming (real-time PCR, RNA-seq); conditions: for activation of endogenous expression of Sall4 and Sox2: withdrawal from VC6TF, after 12 days
[6] = system: concentration ratio of SAH to SAM; experiment: SAH and SAM quantification by HPLC
Protocol: as §1
Next, the role of DZNep, which was added in the late phase of chemical reprogramming was investigated. […] As an SAH hydrolase inhibitor, DZNep elevates the concentration ratio of SAH to S-adenosylmethionine (SAM) and may thereby repress the SAM-dependent cellular methylation process (FIG. 14A).

[7] = system: Oct4 promoter; experiment: DNA methylation at the Oct4 promoter during chemical reprogramming
From the text: Genomic DNA was modified by bisulfite treatment and purified using the MethylCode™ Bisulfite Conversion Kit (Invitrogen) according to the manufacturer's protocol. The amplified fragments were cloned into the pEASY-blunt Vector (Transgene). Ten randomly picked clones from each sample were sequenced.
(§2) The function of DZNep in inducing CiPSCs could not be replaced by down-regulating Ezh2 expression (FIGS. 14C-E). GFP+/ES-like colonies in the primary culture, unlike other colonies, express high mRNA level of Nanog and low level of Gata6, resembling ESCs and the established CiPSCs (data not shown). As master pluripotency genes, Oct4 and Sox2 may thereby activate other pluripotency-related genes and fulfill the chemical reprogramming process, along with the activation of Nanog and the silencing of Gata6, in the presence of 2i (Silva, et al., PLoS Biol. 6:e253 (2008), Theunissen, et al., Curr. Biol., 21:65-71 (2011). Boyer, et al., Cell, 122:947-956(2005); Chazaud, at al., Dev. Cell, 10:615-624 (2006)).

[8] = system: Oct4 promoter; experiment: Chromatin immunoprecipitation, H3K9 methylation at the Oct4 promoter
Protocol: ChIP was performed using the EZ-Magna ChIP A/G Kit (Millipore) according to the manufacturer's protocol. Anti-H3K27me3 (Abcam, ab6002), anti-H3K9me2 (Millipore, 07-441), anti-H3K4me3 (Abcam, ab8580) and anti-H3K9ac (Abcam, ab4441) antibodies were used. Following immunoprecipitation, DNA was analyzed by real-time PCR.
as §2

Nc1nccc2c1ncn2C1OC(CO)C(O)C1O (centres unmarked) [DZA, 3-Deamadenoxine]
replacement of DZNep in CiPSC generation [1]: useful in replacing DZNep in reprogramming

Nc1ncnc2c1ncn2C(C=O)OC(C=O)CO (centres unmarked) [ADOX, Adenosine periodate oxidized]
replacement of DZNep in CiPSC generation [1]: useful in replacing DZNep in reprogramming

C=C[C@@]1(C)CC(=O)[C@]2(O)[C@@]3(C)[C@@H](O)CCC(C)(C)[C@@H]3[C@H](O)[C@H](OC(C)=O)[C@@]2(C)O1 [Forskolin]
reprogramming in the absence of Oct4 (chemical substitute for Oct4) [2]: identified as chemical “substitutes” for Oct4 | hit facilitating late reprogramming [3]: identified in this screen | cAMP level [4]: significantly elevates | activation of endogenous expression of Sall4 and Sox2 [5]: essential in activating

CCCC(=O)[O-].[Na+] [sodium butyrate, Sodiumbutyane]
hit facilitating late reprogramming [3]: identified in this screen

C/C(=C\c1ccc(C(=O)O)cc1)c1ccc2c(c1)C(C)(C)CCC2(C)C [TTNPB, 4-[(E)-2-(5,6,7,8-Tetrahydro-5,5,8,8-tetramethyl-2-naphthalenyl)-1-propenyl]benzoic acid]
enhancement of chemical reprogramming efficiency, factor ([1]; booster added to chemical reprogramming in MEFs): ≤ 40 | chemical reprogramming frequency ([1]; with booster TTNPB): up to 0.2%

Cc1[nH]c2ccc(O)cc2c1CCN [2-Me-5HT, 2-Methyl-5-hydroxytryptamine hydrocholoride]
reprogramming in the absence of Oct4 (chemical substitute for Oct4) [2]: identified as chemical “substitutes” for Oct4

Cc1cnc(-c2cnc(NCCNc3ccc(C#N)cn3)nc2-c2ccc(Cl)cc2Cl)[nH]1 [CHIR99021, 6-[[2-[[4-(2,4-Dichlorophenyl)-5-(5-methyl-1H-imidazol-2-yl)-2-pyrimidinyl]amino]ethyl]amino]-3-pyridinecarbonitrile]
activation of endogenous expression of Sall4 and Sox2 [5]: essential in activating

Nc1nccc2c1ncn2[C@@H]1C=C(CO)[C@@H](O)[C@H]1O [DZNep, 3-deazaneplanocin A]
hit facilitating late reprogramming [3]: identified in this screen | concentration ratio of SAH to S-adenosylmethionine (SAM) [6]: elevates | Oct4 expression ([5]; after addition of DZNep in chemical reprogramming): enhanced significantly | DNA methylation at the Oct4 promoter [7]: significantly decreased | H3K9 methylation at the Oct4 promoter [8]: significantly decreased

Cc1cccc(-c2n[nH]cc2-c2ccc3ncccc3n2)n1 [compound 616452, 2-(3-(6-Methylpyridin-2-yl)-1H-pyrazol-4-yl)-1,5-naphthyridine]
activation of endogenous expression of Sall4 and Sox2 [5]: essential in activating

NC(=O)c1ccc(-c2nc(-c3ccc4c(c3)OCCO4)c(-c3ccccn3)[nH]2)cc1 [D4476]
reprogramming in the absence of Oct4 (chemical substitute for Oct4) [2]: identified as chemical “substitutes” for Oct4

CCCCC[C@H](O)/C=C/[C@H]1[C@H](O)CC(=O)[C@@H]1C/C=C\CCCC(=O)O [Prostaglandin E2]
hit facilitating late reprogramming [3]: identified in this screen

bFGF: recombinant basic fibroblast growth factor
requirement in inducing CiPSCs ([1]; FIG. 5G): necessary in inducing CiPSCs

Nc1ncnc2c1ncn2[C@@H]1C=C(CO)[C@@H](O)[C@H]1O [NEPA, (−)Neplanocin A]
replacement of DZNep in CiPSC generation [1]: useful in replacing DZNep in reprogramming

Nc1ncn([C@@H]2O[C@H](CO)[C@@H](O)[C@H]2O)c(=O)n1 [5-Azacytidine]
hit facilitating late reprogramming [3]: identified in this screen

COc1ccc(C2CNC(=O)C2)cc1OC1CCCC1 (centres unmarked) [Rolipram]
hit facilitating late reprogramming [3]: identified in this screen

Source: US9982237B2, “Compositions and methods for reprograming non-pluripotent cells into pluripotent stem cells” (Hong Guan Ltd., priority 2013, dated 2018)
